ChEMBL document CHEMBL5241106, “Discovery of a Dual Tubulin and Poly(ADP-Ribose) Polymerase-1 Inhibitor by Structure-Based Pharmacophore Modeling, Virtual Screening, Molecular Docking, and Biological Evaluation” (J Med Chem, 2021)
Calls of active or inactive are those of the source. The calls are words filed in the database; no cut-off is given here.

Key:
[1] = system: MDA-MB-231; assay: Induction of apoptosis in human MDA-MB-231 cells assessed as early apoptotic cells at 0.5 uM incubated for 48 hrs by Annexin V-FITC/PI staining based flow cytometry (reference value: 1.71%); type: functional
[2] = system: MDA-MB-231; assay: Anticancer activity against human MDA-MB-231 cells xenografted in BALB/c mouse assessed as reduction in tumor weight at 5 mg/kg, ip administered for every 4 days for 7 times; type: functional, organism-based; settings: time 28.0 day
[3] = system: MDA-MB-231; assay: Induction of apoptosis in human MDA-MB-231 cells assessed as late apoptotic cells at 2.5 uM incubated for 48 hrs by Annexin V-FITC/PI staining based flow cytometry (reference value: 5.06%); type: functional
[4] = […] of angiogenesis in human HUVEC cells assessed as inhibition of capillary tube formation at 12.5 uM incubated for 8 hrs by inverted microscopic analysis; type: functional; design: scale not given: the % may be the effect or the level left
[5] = Hepatotoxicity in BALB/c mouse xenografted with human MDA-MB-231 cells assessed as effect on blood ALT level at 1 to 5 mg/kg, ip administered every 4 days for 7 times measured at 48 hrs post-last administration; type: toxicity, organism-based; settings: in vivo, 720 h, dose 1-5 mg/kg, time 30 day
[6] = system: MDA-MB-231; assay: Induction of apoptosis in human MDA-MB-231 cells assessed as late apoptotic cells at 0.5 uM incubated for 48 hrs by Annexin V-FITC/PI staining based flow cytometry (reference value: 5.06%); type: functional
[7] = system: MDA-MB-231; assay: Anticancer activity against human MDA-MB-231 cells xenografted in BALB/c mouse assessed as reduction in tumor volume at 5 mg/kg, ip administered for every 4 days for 7 times; type: functional, organism-based; settings: time 28.0 day
[8] = target: T1, Poly [ADP-ribose] polymerase 1 (Homo sapiens, UniProt P09874); assay: Inhibition of PARP1 (unknown origin) using [3H]NAD+ as substrate incubated for 15 mins by scintillation counting analysis; settings: read-out: IC50
T1 sequence (P09874 whole entry): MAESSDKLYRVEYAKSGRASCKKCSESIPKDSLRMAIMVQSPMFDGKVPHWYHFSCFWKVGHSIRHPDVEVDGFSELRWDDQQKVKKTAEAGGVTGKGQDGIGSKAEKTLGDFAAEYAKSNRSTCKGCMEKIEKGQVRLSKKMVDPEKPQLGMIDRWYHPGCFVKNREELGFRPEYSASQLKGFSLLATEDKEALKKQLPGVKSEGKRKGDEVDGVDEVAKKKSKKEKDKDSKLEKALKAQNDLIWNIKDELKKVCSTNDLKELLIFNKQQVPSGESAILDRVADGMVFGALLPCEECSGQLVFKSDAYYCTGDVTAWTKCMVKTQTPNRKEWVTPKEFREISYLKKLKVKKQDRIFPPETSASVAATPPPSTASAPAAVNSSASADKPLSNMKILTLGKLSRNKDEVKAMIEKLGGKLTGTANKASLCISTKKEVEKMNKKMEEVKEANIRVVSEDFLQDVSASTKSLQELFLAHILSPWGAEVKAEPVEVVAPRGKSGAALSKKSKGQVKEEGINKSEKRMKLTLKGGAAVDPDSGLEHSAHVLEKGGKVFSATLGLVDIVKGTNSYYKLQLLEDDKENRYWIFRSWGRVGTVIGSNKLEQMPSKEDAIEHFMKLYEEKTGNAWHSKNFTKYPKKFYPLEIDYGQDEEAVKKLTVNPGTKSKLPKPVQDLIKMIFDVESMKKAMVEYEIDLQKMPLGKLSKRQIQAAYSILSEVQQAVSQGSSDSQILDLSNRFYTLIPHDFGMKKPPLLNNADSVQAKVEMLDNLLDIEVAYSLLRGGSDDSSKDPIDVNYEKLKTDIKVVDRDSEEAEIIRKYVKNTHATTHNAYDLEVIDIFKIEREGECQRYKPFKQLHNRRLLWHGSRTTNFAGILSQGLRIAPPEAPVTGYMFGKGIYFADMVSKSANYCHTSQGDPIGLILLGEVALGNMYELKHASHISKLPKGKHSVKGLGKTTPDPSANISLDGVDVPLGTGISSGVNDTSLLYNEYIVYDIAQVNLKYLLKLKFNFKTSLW

[9] = system: MDA-MB-231; assay: Induction of apoptosis in human MDA-MB-231 cells assessed as viable cells at 12.5 uM incubated for 48 hrs by Annexin V-FITC/PI staining based flow cytometry (reference value: 91.4%); type: functional; settings: read-out: Activity
[10] = target: Serine/threonine-protein kinase pim-1 (Homo sapiens, UniProt P11309); assay: Inhibition of PIM-1 (unknown origin)
Chain of Serine/threonine-protein kinase pim-1 (P11309 whole entry): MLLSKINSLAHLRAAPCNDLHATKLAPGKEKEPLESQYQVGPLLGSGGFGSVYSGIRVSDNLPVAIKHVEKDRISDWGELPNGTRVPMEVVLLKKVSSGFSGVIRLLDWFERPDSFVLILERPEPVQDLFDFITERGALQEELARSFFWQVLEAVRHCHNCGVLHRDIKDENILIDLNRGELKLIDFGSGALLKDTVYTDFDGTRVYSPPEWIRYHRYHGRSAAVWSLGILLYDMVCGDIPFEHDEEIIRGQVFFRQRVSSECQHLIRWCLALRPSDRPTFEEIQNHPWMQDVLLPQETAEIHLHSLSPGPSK

[11] = target: Epidermal growth factor receptor (Homo sapiens, UniProt P00533); assay: Inhibition of EGFR (unknown origin)
Chain of Epidermal growth factor receptor (P00533 whole entry): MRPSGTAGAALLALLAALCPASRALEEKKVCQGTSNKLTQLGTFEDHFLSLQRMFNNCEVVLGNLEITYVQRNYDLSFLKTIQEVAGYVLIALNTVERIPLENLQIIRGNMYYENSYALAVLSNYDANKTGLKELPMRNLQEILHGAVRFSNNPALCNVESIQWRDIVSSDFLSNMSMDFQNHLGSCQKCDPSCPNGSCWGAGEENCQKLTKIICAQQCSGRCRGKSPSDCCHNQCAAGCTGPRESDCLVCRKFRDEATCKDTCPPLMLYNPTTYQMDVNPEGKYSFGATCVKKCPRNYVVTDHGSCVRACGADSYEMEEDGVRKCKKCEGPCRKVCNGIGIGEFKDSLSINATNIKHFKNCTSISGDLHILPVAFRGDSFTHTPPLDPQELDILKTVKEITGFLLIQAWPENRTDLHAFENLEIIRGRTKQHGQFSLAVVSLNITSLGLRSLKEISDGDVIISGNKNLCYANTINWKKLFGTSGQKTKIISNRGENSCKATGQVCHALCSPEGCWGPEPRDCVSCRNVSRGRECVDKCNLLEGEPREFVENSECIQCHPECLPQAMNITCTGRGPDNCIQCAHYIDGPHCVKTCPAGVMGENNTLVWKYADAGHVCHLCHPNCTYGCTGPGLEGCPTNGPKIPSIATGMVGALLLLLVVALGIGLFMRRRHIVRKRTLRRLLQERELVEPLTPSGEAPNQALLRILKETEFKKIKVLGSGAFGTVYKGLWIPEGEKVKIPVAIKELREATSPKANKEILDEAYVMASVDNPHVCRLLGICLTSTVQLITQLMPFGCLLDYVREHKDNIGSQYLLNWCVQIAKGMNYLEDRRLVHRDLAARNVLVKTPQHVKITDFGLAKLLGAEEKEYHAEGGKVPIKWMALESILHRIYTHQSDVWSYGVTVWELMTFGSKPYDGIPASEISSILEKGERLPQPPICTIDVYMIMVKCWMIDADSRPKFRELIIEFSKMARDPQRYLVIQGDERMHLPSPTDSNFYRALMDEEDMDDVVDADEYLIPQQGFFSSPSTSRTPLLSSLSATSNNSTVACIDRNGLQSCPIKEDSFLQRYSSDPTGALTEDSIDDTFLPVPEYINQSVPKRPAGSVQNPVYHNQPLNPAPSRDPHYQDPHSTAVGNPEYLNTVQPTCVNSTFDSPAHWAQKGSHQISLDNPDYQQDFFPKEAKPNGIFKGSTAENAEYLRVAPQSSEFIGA

[12] = target: CDK4/Cyclin D3 (Homo sapiens, UniProt P11802); assay: Inhibition of CDK4/Cyclin D3 (unknown origin); type: protein-complex assay
Chain of CDK4/Cyclin D3 (P11802 whole entry): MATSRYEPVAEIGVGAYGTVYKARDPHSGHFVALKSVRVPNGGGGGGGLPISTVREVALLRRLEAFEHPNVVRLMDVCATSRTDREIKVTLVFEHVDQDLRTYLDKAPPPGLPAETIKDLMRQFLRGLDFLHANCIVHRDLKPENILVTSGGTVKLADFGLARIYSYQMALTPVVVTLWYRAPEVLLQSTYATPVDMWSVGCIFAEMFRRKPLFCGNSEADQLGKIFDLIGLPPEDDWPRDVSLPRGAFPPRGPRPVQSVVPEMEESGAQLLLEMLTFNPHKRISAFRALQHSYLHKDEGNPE
Chain of CDK4/Cyclin D3 (P30281 whole entry, further chain): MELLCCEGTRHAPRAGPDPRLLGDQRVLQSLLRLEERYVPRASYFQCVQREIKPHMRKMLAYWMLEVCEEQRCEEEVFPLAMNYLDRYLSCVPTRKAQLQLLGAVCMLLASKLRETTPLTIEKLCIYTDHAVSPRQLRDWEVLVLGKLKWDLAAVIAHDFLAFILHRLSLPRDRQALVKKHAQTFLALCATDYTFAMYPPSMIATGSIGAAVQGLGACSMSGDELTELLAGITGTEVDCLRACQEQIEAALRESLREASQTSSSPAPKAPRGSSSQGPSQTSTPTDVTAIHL

[13] = Cytotoxicity against human MCF-10A cells assessed as inhibition of cell growth incubated for 72 hrs by MTT assay; type: toxicity, cell-based
[14] = target: T1, Poly [ADP-ribose] polymerase 1; assay: Inhibition of PARP-1 in human MDA-MB-231 cells assessed as induction of double strand DNA breaks by measuring increase in gammaH2AX level at 2.5 to 12.5 uM incubated for 48 hrs by western blotting analysis; type: cell-based; settings: dose 2.5-12.5 µM
[15] = system: MDA-MB-231; assay: Induction of apoptosis in human MDA-MB-231 cells assessed as increase in cleaved caspase-3 level at 0.5 to 12.5 uM incubated for 48 hrs by western blot analysis; type: functional, cell-based; settings: dose 0.5-12.5 µM
[16] = system: MDA-MB-231; assay: Induction of apoptosis in human MDA-MB-231 cells assessed as early apoptotic cells at 2.5 uM incubated for 48 hrs by Annexin V-FITC/PI staining based flow cytometry (reference value: 1.71%); type: functional
[17] = Hepatotoxicity in BALB/c mouse xenografted with human MDA-MB-231 cells assessed as effect on blood AST level at 1 to 5 mg/kg, ip administered every 4 days for 7 times measured at 48 hrs post-last administration; type: toxicity, organism-based; settings: in vivo, 720 h, dose 1-5 mg/kg, time 30 day
[18] = target: Tubulin; assay: Inhibition of tubulin polymerization (unknown origin) by turbidimetric analysis; type: protein-complex assay, Homo sapiens; settings: read-out: IC50
[19] = Toxicity in BALB/c mouse xenografted with human MDA-MB-231 cells assessed as change in liver morphological changes at 1 to 5 mg/kg, ip administered every 4 days for 7 times measured at 48 hrs post-last administration by H and E staining based fluorescence microscopic analysis; type: organism-based; settings: in vivo, 720 h, dose 1-5 mg/kg, time 30 day
[20] = system: SK-OV-3; assay: Cytotoxicity against human SK-OV-3 cells assessed as inhibition of cell growth incubated for 72 hrs by MTT assay; type: functional, cell-based; settings: SK-OV-3, 72 h
[21] = system: MDA-MB-231; assay: Induction of cell cycle arrest in human MDA-MB-231 cells assessed as increase in p-cdc2 expression at 0.5 to 12.5 uM incubated for 48 hrs by Western blot analysis; type: functional, cell-based; settings: dose 0.5-12.5 µM
[22] = target: T2, Tubulin (Homo sapiens) (UniProt P68371+Q9H4B7+P0DPH7+P68366+Q13509+Q71U36+P04350+Q3ZCM7+P07437+P68363+Q9BQE3+Q6PEY2+Q13885+Q9BVA1+Q9BUF5); assay: Inhibition of tubulin polymerization (unknown origin) at 10 uM by turbidimetric analysis; type: protein-complex assay
[23] = Toxicity in BALB/c mouse xenografted with human MDA-MB-231 cells assessed as increase in body weight at 1 to 5 mg/kg, ip administered every 4 days for 7 times; type: organism-based; settings: in vivo, 672 h, dose 1-5 mg/kg, time 28 day
[24] = Toxicity in BALB/c mouse xenografted with human MDA-MB-231 cells assessed as effect on RBC count at 1 to 5 mg/kg, ip administered every 4 days for 7 times measured at 48 hrs post-last administration; type: organism-based, Erythrocyte; settings: in vivo, 720 h, dose 1-5 mg/kg, time 30 day
[25] = system: MCF-10A; assay: Induction of cell cycle arrest in human MCF-10A cells at 0.5 to 12.5 uM incubated for 48 hrs by propidium iodide staining based flow cytometry; type: toxicity; settings: dose 0.5-12.5 µM
[26] = target: T2, Tubulin (Homo sapiens); assay: Inhibition of tubulin polymerization in human MCF-10A cells assessed as destruction of normal microtubule network at 0.5 to 12.5 uM incubated for 48 hrs by immunofluorescence assay; type: cell-based; settings: dose 0.5-12.5 µM
[27] = Toxicity in BALB/c mouse xenografted with human MDA-MB-231 cells assessed as effect on platelet count at 1 to 5 mg/kg, ip administered every 4 days for 7 times measured at 48 hrs post-last administration; type: organism-based; settings: in vivo, 720 h, dose 1-5 mg/kg, time 30 day

IC50 [8]: 0.48 µM | IC50 [10]: > 10 µM | IC50 [11]: > 10 µM | IC50 [12]: > 10 µM | inhibition [14]: Active | IC50 [18]: 0.94 µM | inhibition [22]: 91% | inhibition [26]: inactive
SMILES: O=c1[nH]c(/C=C/c2cccc(F)c2)nc2ccccc12
Activity [1]: 2.16% | Activity [2]: Active | Activity [3]: 6.62% | Activity [4]: 100% | Activity [5]: Non-Toxic | Activity [6]: 6.39% | Activity [7]: Active | viability at 12.5 µM [9]: 83.4% | IC50 at 72 h [13]: > 10 µM | Activity [15]: Active | Activity [16]: 2.23% | Activity [17]: Non-Toxic | Activity [19]: Non-Toxic | IC50 [20]: 1.7 µM | Activity [21]: Active | Activity [23]: Toxic | Activity [24]: Non-Toxic | Activity [25]: Non-Toxic | Activity [27]: Non-Toxic
